Measurements as given in patent publication US5691338A, “1,2-dithiole-3 thiones for the treatment of reverse transcriptase-dependent viral infections” (priority 1995, dated 1997).
“Also recorded” adds a separate entry of the source. Read-outs that look alike come from different tables or passages of the source.

Key:
[1] = target: T1, HIV-1 reverse transcriptase (RT) (Human immunodeficiency virus type 1 group M subtype B, UniProt P04585); assay: Inhibition of recombinant HIV-1 reverse transcriptase (TTP incorporation); format: biochemical; conditions: for Ki: Segal transformation of Dixon plots
T1 construct: Recombinant HIV-1 reverse transcriptase (RT) was obtained from Worthington (Freehold, N.J.); purchased Worthington (Freehold, N.J.)
Description: (§1) Reverse transcriptase assays were performed as described by Flexner, et al. (25) using recombinant HIV-1 RT as the source of enzyme. Dilutions and assay were carried out in 96-well "half-area" plates. The enzyme with various concentrations of test compounds were dissolved in DPBS containing 1% w/v BSA and diluted in 50 μl volumes; 10 μl aliquots in triplicate were transferred to another plate for the enzyme assay. The reactions were initiated by the addition of 25 μl/well of buffer containing 50 mM Tris.cndot.Cl (pH 8.0), 75 mM KCl, 1 mM dithiothreitol, 2 mM MgCl2, 5 μg/ml poly(A), 2.5 μg/ml oligo (dT), 10 μCi/ml ^32 p TTP with or without unlabeled TTP. […] TTP incorporation was measured by spotting 20 μl of the reaction cocktail onto DE81 paper, washing the paper with 4×5 min washes of 300 mM NaCl and 30 mM sodium citrate (pH 7.0), drying the paper, and counting the paper by liquid scintillation counting. The assays performed with oltipraz and 1,2-dithiole-3-thione contained 0.29% final concentration DMSO. This concentration of DMSO had no effect on RT activity.

[2] = target: T1, HIV-1 reverse transcriptase (RT); assay: Time-dependent (irreversible) inhibition of HIV-1 reverse transcriptase after preincubation; format: biochemical
Description: FIG. 6. […] RT was preincubated for the times indicated with oltipraz dissolved in DPBS containing 1 mg/ml bovine serum albumin, 0.13% DMSO, and either 4 μM TTP or 5 μg/ml poly(A):2.5 μg/ml oligo(dT). After incubation, 10 μl aliquots in triplicate were added to 25 μl of a reaction cocktail containing 4 μM TTP, 5 μg/ml poly(A), and 2.5 μg/ml oligo(dT) and assayed for TTP incorporation into DNA over 30 min. as described by Flexner, et al. (25). The insets are Kitz-Wilson transformations (41).
as §1, with “DMSO.” for “DMSO. This concentration of DMSO had no effect on RT activity.”

[3] = single 250 mg dose, adults, cited from earlier work
[4] = Dixon plots, listed as oltipraz

In the case of `Cc1c(-c2cnccn2)ssc1=S` [compound 11, 4-methyl-5-(2-pyrazinyl)-1,2-dithiole-3-thione], the “type of inhibition with respect to TTP” value [1, 4] is reported as “non-competitive inhibitor”, the “type of inhibition with respect to poly(A):oligo(dT)” value [1, 4] is reported as “mixed inhibitor” and the Ki ([1]; N=2 experiments, read-out: Ki with respect to TTP) is reported as 183 ± 50 µM. For the same molecule, the Ki ([1]; N=3 experiments, read-out: Ki with respect to poly(A):oligo(dT)) was 189 ± 29 µM, the “synergy as inhibitors of reverse transcriptase” value ([1]; moderate to high levels of inhibition) was “synergistically with AZT 5'-triphosphate” and the “inhibition of recombinant HIV-1 reverse transcriptase” value ([1]; poly(A):oligo(dT) and TTP as substrates) was “inhibitor”. For the same molecule, the “irreversible inhibition of reverse transcriptase” value ([2]; kinetic behaviour) was “behaves kinetically as an irreversible inhibitor of RT”, the Ki ([2]; preincubation with TTP, experiment of FIG. 6, Kitz-Wilson) was 15.6 µM and the “RT inactivation in the presence of poly(A):oligo(dT)” value ([2]; preincubation with poly(A):oligo(dT), FIG. 6 lower, listed as oltipraz) was “indistinguishable from rates of RT inactivation in its absence; also recorded: inconsistent with irreversible inhibition”. It also gave a Ki ([2]; preincubation, N=5 independent experiments) of 25.9 ± 3.4 µM, a kinact ([2]; preincubation, N=5 independent experiments, read-out: k3 (limiting rate of inactivation) (converted)) of 1.44e-05 s⁻¹ and a kinact ([2]; read-out: k3 (limiting rate of inactivation), preincubation with TTP, experiment of FIG. 6, Kitz-Wilson) of 2.33e-05 s⁻¹. For the same molecule, the Cmax ([3]; read-out: peak serum level) was greater than 4 µM and the peak serum level [3] was “greater than 1 μg/ml”.
